From ChEMBL document CHEMBL3808363, “2-(Thienothiazolylimino)-1,3-thiazolidin-4-ones inhibit cell division cycle 25 A phosphatase” (Bioorg Med Chem, 2016)
Calls of active or inactive are those of the source. The rule behind the calls is not given here.

How the values were obtained:
Assay type in all cases: functional, cell-based
[1] = system: MCF7; assay: Induction of apoptosis in human MCF7 cells assessed as chromatin condensation after 24 to 48 hrs by DAPI staining based UV fluorescent microscopy
[2] = system: MDA-MB-231; assay: Increase in peroxynitryl radical levels in human MDA-MB-231 cells at IC50 concentration incubated for 24 hrs by DHR dye based flow cytometry
[3] = system: MDA-MB-231; assay: Induction of apoptosis in human MDA-MB-231 cells assessed as nuclear fragmentation after 24 hrs by dihydro-rhodamine 123/hoechst […] staining based UV fluorescent microscopy
[4] = system: MCF7; assay: Induction of autophagy in human MCF7 cells assessed as acidic vesicles at 5.1 uM over 3 days by acridine orange dye based flow cytometry

Structure (SMILES): COc1ccc(/C=C2/S/C(=N\c3nc4cc(-c5ccc(Cl)cc5)sc4s3)NC2=O)cc1
- Activity [1]: inactive
- Activity [2]: Active
- Activity [3]: inactive
- Activity [4]: inactive
